Legend:
[1] = Lap shear test of cured PMA resin on primed mica; conditions: first value of each pair (mica)
Method: (§1) 1 wt % primer solution was spread on mica, glass, tooth enamel, or a silicon wafer and incubated for 1 min, followed by thorough washing with methanol (for MDP, P1-P3) or DMSO (for P4) and drying by flowing nitrogen. The surfaces were exposed to a basic aqueous solution (pH 9, using sodium hydroxide), incubated for 1 min, and drying by flowing nitrogen (see FIG. 52). The methacrylic comonomer blend (Bis-GMA, TEGDMA, DMAEMA and CQ) was packed in a gelatin capsule (size #4, 5-mm diameter, Torpac Inc.) and placed up on top of the primer-treated substrates. The comonomer blend was cured (or crosslinked) for 1 min using a portable dental curing lamp (Foshan Liang Ya Dental Co., LY-A180, 420-480 nm, 1200-2000 mW·cm^−2) (see FIG. 53). Uniaxial compression was applied to the capsule at a rate of 0.05 inch min^−1 using a materials testing system (MTS Bionix 200) until the capsules are separated from the substrate. The lap shear fracture measurements were repeated at least 10 times for each condition.

[2] = Lap shear test of cured PMA resin on primed silica/glass; conditions: second value of each pair (silica)
Method: as §1

[3] = Lap shear test of cured PMA resin on primed tooth enamel; parameters: species or system human
Method: as §1

[4] = Cyclic voltammetry of catechol oxidation; type: physicochemical; conditions: 5 mM in DI water
Method: (§2) Cyclic voltammetry was performed on a Versastat 3 potentiostat from Ametek Co. These analyses were carried out using a three-electrode cell: a Pt wire as the counter electrode, an Ag/AgCl reference electrode, and a Carbon paste electrode (CPE) served as the working electrode. CPE is the best choice for adhesive materials because of its ability to be completely polished before each experiment. Catechol auto-oxidation was avoided by performing all electrochemical experiments with degassed deionized water in a glove bag under argon. Scan rate 1 mV s-1 was used for all experiments. CV of 5 mM synthesized polymers and 5 mM methyl catechol, a simple catechol-containing compound, were compared. Oxidation of Catechol carrying molecules occurred at more positive potentials than methyl catechol, indicating the unique structure of the dispersions provide shielding effects that stabilized catechol groups (FIG. 3).
Cyclic voltammetry was performed on a Versastat 3 potentiostat from Ametek Co. (Berwyn, PA). These analyses were carried out using a three-electrode cell: a Pt wire as the counter electrode, an Ag/AgCl reference electrode, and a Carbon paste electrode (CPE) served as the working electrode. CPE is the best choice for adhesive materials because of its ability to be completely polished before each experiment.
as §2, with “s^−1” for “s-1”, “molecules” for “polymers”, “groups. Z-Cat-Ben with an oxidation peak at 840 mV is more resistant to oxidation than the other species” for “groups”, “42).” for “3).”

[5] = Surface forces apparatus (SFA) cohesion/adhesion between thin films on mica; type: physicochemical
Method: The interaction between two surfaces can be measured with nano-Newton level force resolution and Angstrom level resolution in the separation distance between the surfaces. The details of the SFA techniques have been describe in a work by Israelachvili et al. In a typical SFA experiment (FIG. 2C), the distance and the force between the surfaces are measured simultaneously. To begin with, the instrument is calibrated at large separation distances. When the two surfaces are not interacting, i.e., they are separated by large distances, the change in the separation between them is equal to the distance through which the motor moves the lower surface towards or away from the upper surface (or the upper surface driven by the piezo-tube moves towards the lower surface). However, once the surfaces are close enough to start interacting with each other, the measured separation distance deviates from the expected separation calibrated when there is no force between the surfaces. This deviation is due to the deflection of the double cantilever spring and is directly proportional to the force acting normally between the two opposing surfaces. Thus the normal force can be measured using Hooke's law, F=kΔx, where k is the spring constant of the double-cantilever spring and Δx=Dactual−Dapplied is the deflection of the spring, determined by taking the difference between the applied change in position of one of the surfaces Dapplied and the actual change in distance measured between the surfaces Dactual. The actual distance, Dactual, between the surfaces can be measured by multiple beam interferometry (MBI) and will be discussed below.
The distance between the surfaces, shape of the interface and the refractive index of the media between the surfaces can be accurately determined by Multiple Beam Interferometry (MBI) technique. In this technique, white light is directed through two back-silvered mica surfaces (or uniform and same thickness). As a white light passes between the mica surfaces, it undergoes interference due to the optical trap set up by the back silver on each of these surfaces giving rise to discrete wavelengths of light (FIG. 2C). These wavelengths of light are resolved in a spectrometer creating interference fringes known as ‘fringes of equal chromatic order’ (FECO). Since mica is birefringent, the FECO appears as doublets and termed as β and γ. Alternate fringes are termed as odd and even fringes with odd fringes having nodes at the center and even fringes with anti-nodes in the center. The FECO is then recorded on a camera and analyzed to determine the distance between the surfaces using the following equations: […]
The adhesion/cohesion energy of the synthetic zwitterionic molecules was investigated in SFA (SurForce LLC, Santa Barbara, CA). Two molecularly smooth freshly cleaved back silvered mica surfaces glued on cylindrical silica discs of radius of curvature, R˜2 cm, were mounted in the SFA and 50 μL of a colloidal dispersion of the synthetic molecules in DI water were injected between the surfaces at different concentrations (C=0.5-5 mM) and the forces between the thin films of the molecules were measured by Multiple Beam Interferometry (MBI). The adhesion forces between Z-Cat-C10 molecules on various surfaces, e.g., silica and copper, were also measured by AFM (MFP-3D, Asylum research, Goleta, CA) in DI water and ambient conditions, respectively, at room temperature. AFM probes with a silicon dioxide particle (10, 5, and 1 μm, respectively) on a silicon nitride (SN) cantilever-0.6 N m^−1 were purchased from Novascan Technologies, Inc (Ames, IA). Cantilever spring constants were measured for each force run. Images of Z-Cat-C10 coating on silicon wafer and copper plates were visualized in an AFM. […]

[6] = Contact angle measurements on SAM-modified substrates; type: physicochemical; conditions: SAM-modified nano-grooved SiO2
Method: The nano-grooved SiO2 substrates passivated with Z-Cat-Ben or Z-Cat-Ben-F SAMs were prepared with the same procedure described above. For the reference substrate, the pre-cleaned and ultraviolet/ozone-treated (for 10 min) nano-grooved SiO2 substrate was passivated with n-decyltrichlorosilane (Gelest Inc.) in toluene solution (1% by volume) at 80° C. for 20 min in ambient air. Then, the substrate was subsequently sonicated in toluene and rinsed with additional toluene several times. Anhydrous chlorobenzene (50 μL) was used as a droplet dropping on the substrates. All contact angle images were taken at the direction perpendicular to nano-grooves in the substrates using Dataphysics OCA 15EC goniometer.

[7] = OFET characterization (saturation hole mobility)
Description: The OFETs were fabricated onto nano-grooved SiO2 substrates prepared by rubbing n^++Si (500 μm)/SiO2 (300 nm) substrate (International Wafer Services Co.) with a diamond lapping disc with particle sizes of 100 nm (Allied High Tech Products Inc.) as described in detail in the previous reports. The Ni (5 nm)/Au (50 nm) source and drain electrodes were patterned on the SiO2 dielectrics through a conventional photolithography process. For OFETs with Ni source and drain electrodes, an additional Ni (10 nm) layer was deposited on top of the pre-deposited Au electrodes. All metal electrodes were deposited by electron beam evaporation at 7×10^−7 Torr. Then, the substrates were sonicated in acetone and isopropanol for cleaning, and were kept in an oven at >100° C. for overnight. After ultraviolet/ozone treatment of pre-cleaned nano-grooved SiO2 substrates for 10 min, the substrates were passivated with the Z-Cat-Ben or Z-Cat-Ben-F SAM by dropping SAM water solution (5 mM) onto the substrates for ˜1 min. The substrates were subsequently rinsed with deionized water for ˜1 min, and were kept in a low vacuum for 10 min to remove residual water. The PCDTPT (1-Material Inc.) was then cast from a chlorobenzene solution (0.25 mg mL^−1) through the sandwich casting in a nitrogen-filled glove box. The devices were then cured at 200° C. for 1 min prior to measurements, and were tested using a probe station (Signatone Co.) in a nitrogen-filled glove box. Data were collected by a Keithley 4200 system.
The field-effect mobilities in the saturation regime were extracted using the following equation, IDS=(W/2L)Cμ(VGS−VT)^2 (7) where, W is the channel width, L is the channel length, C is the gate dielectric capacitance per unit area, μ is the carrier mobility in the saturation regime, IDS is the drain-source current, and VGS is the gate-source voltage. Channel width/length is 1000/200 μm for the devices used in this study. Transistor Characteristics of OFETs with Z-Cat-Ben and Z-Cat-Ben-F: Contact Angle Measurements: […]

[8] = SFA adhesion of cured PMA resin between primer-treated mica surfaces
Method: Atomically-smooth muscovite mica sheets were freshly cleaved (thickness of 2-5 μm) and attached on another large freshly cleaved mica backing sheet under a laminar flow hood and placed in a desiccator for clean storage. To ensure use of a fresh surface for each experiment, mica was peeled away from the backing sheet and glued on cylindrical disks using an epoxy glue (EPON 1004 F® from Exxon Chemicals). In each experiment, the mica surfaces were treated with one of the primer solutions, as described for the lap shear experiments, and then mounted in the SFA in a cross cylindrical geometry. In contrast to typical SFA experiments, which use an interferometric method to calculate the disk-disk separation distances and thus the interaction forces, in the SFA used here for adhesion testing, the disk separations were directly measured using semiconductor strain-gauged double cantilever springs (k=1000-10000 N/m)(see FIG. 67). After separating the surfaces, 100 […]1 of comonomer blend was injected between the two surfaces. Then, ˜600 mN of load was applied, followed by visible light curing for 1 min using the portable dental curing lamp (see FIG. 54G). Adhesion strength of cured polymer toward the mica was measured by detaching (unloading) two surfaces. All loading and unloading were performed using a coarse micrometer at the velocity of […]. The SFA measurements were repeated at least 5 times for each condition.

[9] = QCM-D adsorption of primers; type: physicochemical
Method: A ‘static cell’ (often called ‘Open Module’) QCM-D (Q-Sense, Biolin Scientific) was employed to quantitatively evaluate the adsorption of each primer onto SiO2 surface using a quartz sensor (QSX 303, Biolin Scientific). Changes in resonance frequency (ΔF) and dissipation (ΔD) of the SiO2 were recorded and used to measure the adsorbed mass and layer viscoelasticity, respectively, of the primer deposited on the sensor. In detail, pure solvent (100 μl) was dropped onto the sensor and equilibrated for ˜20-30 min. Then, 2 wt % primer solution (100 μl) was dropped onto the sensor (this is labeled “Solution Drop-in” in FIG. 51) and equilibrated until the frequency and dissipation signals stabilized. To remove unbound primers, the sensor was rinsed with solvents (this is labeled “Solvent Rinsing” in FIG. 51) and equilibrated until frequency and dissipation signals stabilized.
Mass loss of P3 and P4 during the rinsing was negligible compared to P2 which lost 60% of initial mass, indicating outstanding adsorption efficiency of catechol-containing primers on SiO2 surfaces even compared to mussel foot protein adsorption (˜30% loss of mfp-3s^3). The priming thickness of P4 estimated by QCM-D is ˜3.1 nm which agrees with the average height of AFM images (˜3.5 nm), assuming that QCM-D measures the average thickness of a uniform layer. The smaller average thickness of P4 (˜3.1 nm) compared to the molecular contour length (˜4.8 nm) may be attributed to the flexible alkyl spacer in P4. The possibility of a softer, more flexible layer with P4 is supported by a higher change in dissipation (ΔD) compared to other primers.

[10] = AFM height profiles of adsorbed primers; type: physicochemical
Method: Each primer solution (1 wt %) was prepared in methanol (for P1-P3) or DMSO (for P4). The primer solution was drop cast onto a freshly cleaved mica or glass surface, and kept at room temperature for 1 min. Subsequently, the surfaces were thoroughly rinsed with the respective solvents and dried with argon. All images, surface profiles and surfaces roughnesses were collected using an Asylum MFP-3D standard system (Asylum Research, Santa Barbara, CA) using silicon cantilevers (FORTGG-50, Applied NanoStructures, Santa Clara, CA) (FIGS. 48C and 49).

SMILES | lap shear strength σshear,max [1] | lap shear strength σshear,max [2] | lap shear strength σshear,max [3] | stability in water to oxidation (shelf life) [4] | cohesion energy Wc between SAMs ([5]; 5 mM in DI water, mica) | hard-wall thickness ([5]; SAMs from 5 mM, mica) | SAM thickness on each mica surface ([5]; half of hard-wall) | contact angle θ of chlorobenzene droplet [6] | saturation hole mobility μ ([7]; Au source and drain electrodes) | saturation hole mobility ([7]; Ni source and drain electrodes) | increase in adhesion vs plain mica (no primer) [8] | adhesion pressure Pad ([8]; n=5) | thickness from QCM-D [9] | surface concentration of adsorbed layer ([9]; Sauerbrey, after rinsing) | mass loss during rinsing ([9]; of initial mass) | adsorption seen by AFM ([10]; 1 wt.% solution, mica and glass) | AFM height ([10]; mica)
C=CC(=O)OCCC[Si](OC)(OC)OC [Silane, 3-trimethoxysilylpropyl acrylate, reference compound] | 0.9±0.4 MPa | 3.8±1.1 MPa | no increase in the lap shear strength | – | – | – | – | – | – | – | – | – | – | – | – | – | –
C[N+](C)(CCCc1cc(C(F)(F)F)cc(C(F)(F)F)c1)CCOP(=O)([O-])OCCCc1ccc(O)c(O)c1 [Z-Cat-Ben-F] | – | – | – | stable (shelf life) in water to oxidation | 3.3±1.0 mJ/m^2 | 2.6±0.4 nm | ~1.3 nm | < 10 ° | 26±5 cm^2 V^−1 s^−1 | 46±4 cm^2 V^−1 s^−1 | – | – | – | – | – | – | –
C=CC(=O)OCCCCCCCCOC(=O)CCc1ccc(O)c(O)c1 [P4, 8-((3-(3,4-dihydroxyphenyl)propanoyl)oxy)octyl acrylate] | 0.9±0.1 MPa | 4.5±0.5 MPa | 3.0±0.3 MPa | – | – | – | – | – | – | – | ~4 fold | 81.7±18.5 kPa | ~3.1 nm | 345 ng/cm^2 | negligible | densely primed | ~3.5 nm

Reference: US12415939B2, “Nano-adhesive and surface primer compound and use thereof” (The Regents of the University of California, priority 2015, dated 2025)
